Test results from ChEMBL document CHEMBL1806423, “Cytotoxic 1,2-dialkynylimidazole-based aza-enediynes: aza-Bergman rearrangement rates do not predict cytotoxicity” (J Med Chem, 2011).
Active and inactive are the calls of the source. The calls are words filed in the database; no cut-off is given here.

Columns and labels:
[1] = system: A549; assay: Cytotoxicity against human A549 cells after 72 hrs by alamar blue assay; assay type: functional, cell-based; conditions: A549, 72 h
[2] = Thermal stability of the compound assessed as half life at 110 degC; assay type: physicochemical
[3] = biological target: Albumin (Bos taurus, UniProt P02769); assay: Induction of cleavage of bovine serum albumin at 500 uM after 16 hrs using Coomassie blue by SDS-PAGE; conditions: cattle
[4] = system: Nucleic Acid; assay: Induction of DNA cleavage of supercoiled phiX174 plasmid DNA assessed as relaxed DNA at 100 uM after 16 hrs by gel electrophoresis; assay type: nucleic-acid assay; conditions: Enterobacteria phage phiX174

Chain of Albumin (P02769 whole entry): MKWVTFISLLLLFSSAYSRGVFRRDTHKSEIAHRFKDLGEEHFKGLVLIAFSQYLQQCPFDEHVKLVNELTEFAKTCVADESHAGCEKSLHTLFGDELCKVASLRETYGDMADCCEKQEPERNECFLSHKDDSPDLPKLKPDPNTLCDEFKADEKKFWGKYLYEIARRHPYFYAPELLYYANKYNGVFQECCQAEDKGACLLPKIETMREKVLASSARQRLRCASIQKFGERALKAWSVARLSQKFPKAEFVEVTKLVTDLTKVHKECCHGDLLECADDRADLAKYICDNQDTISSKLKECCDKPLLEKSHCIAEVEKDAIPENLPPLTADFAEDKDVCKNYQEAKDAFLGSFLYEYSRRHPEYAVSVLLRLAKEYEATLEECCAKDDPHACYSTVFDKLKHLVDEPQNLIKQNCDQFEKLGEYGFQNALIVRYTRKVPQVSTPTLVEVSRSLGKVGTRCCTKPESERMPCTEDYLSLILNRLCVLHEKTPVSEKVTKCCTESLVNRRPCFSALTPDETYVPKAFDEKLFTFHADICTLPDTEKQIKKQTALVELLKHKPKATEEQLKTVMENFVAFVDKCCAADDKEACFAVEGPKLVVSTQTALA

SMILES | IC50 [1] [nM] | half-life [2] [h] | Activity [3] | Activity [4]
C#Cn1ccnc1C#Cc1ccc(C(F)(F)F)cc1 | 6000 |  |  | 
C#Cn1ccnc1C#CCOC | 1000 |  |  | 
C#Cc1nccn1C#Cc1ccccc1 | 5000 |  |  | 
C(#Cn1ccnc1CCc1ccccc1)c1ccccc1 | > 15000 |  |  | 
C#Cn1ccnc1C#Cc1ccc(C(C)(C)C)cc1 | 2500 | 16 |  | 
C#Cn1cnc(-c2ccccc2)c1 | 1100 |  |  | 
C(#Cn1ccnc1)c1ccccc1 | 9200 |  |  | 
C#Cn1ccnc1C#Cc1ccc(OC)cc1 | 500 | 17 | Not Active | inactive
C#Cn1ccnc1C#Cc1cc(C(F)(F)F)cc(C(F)(F)F)c1 | 2500 |  |  | 
COc1ccc(C#Cc2nccn2C)cc1 | > 15000 |  |  | 
C#Cn1cc(-c2ccccc2)nc1C#Cc1ccc(OC)cc1 | 2000 |  |  | 
COc1ccc(C#Cc2nccn2/C=C\Sc2ccccc2)cc1 | 10100 |  |  | 
C#Cn1ccnc1C#Cc1ccc([N+](=O)[O-])cc1 | 120 | 32 | Not Active | inactive
C#Cn1cc(-c2ccc(F)cc2)nc1C#CCCO | 2600 |  |  | 
C#Cn1ccnc1C#Cc1ccc(C(C)=O)cc1 | 500 |  |  | 
C#Cc1nc(-c2ccc(F)cc2)cn1C#C | 2600 |  | Not Active | inactive
C#Cc1nc2ccccc2n1C#C | 2000 |  |  | 
C#Cn1c(C#Cc2ccc(OC)cc2)nc2ccccc21 | 2900 |  |  | 
C#Cn1ccnc1C#Cc1ccccc1 | 6000 |  |  | 
C#Cc1nc(-c2ccccc2)cn1C#C | 2500 |  |  | 
OCC#Cc1nccn1C#CCO | 1900 |  |  | 
